According to patent publication US20090142363A1, “CYTOTOXIC T-CELL EPITOPE PEPTIDE AND USE THEREOF” (priority 2005, published 2009):
No end group written: not given here.

Key:
Assay type in all cases: cell-based, human
[1] = system: peripheral blood / PBMCs / peptide-induced CTL lines of HLA-A*24 donors; test: Staining of peripheral blood, PBMCs or peptide-induced CTL lines with MHC-tetramer reagents; parameters: positive rate: CD8-positive, MHC-tetramer reagent-positive cells to viable cells: concentration or dose not given beside the values; settings: for MHC-tetramer reagent-positive cells (UL and UR) in IFNγ / tetramer plot, almost none producing IFNγ: HIV peptide added, TYF: donor ID*24-8, VYS: donor ID*24-2; for increase of the positive rate from day 0 to day 10: donor ID*24-8, ten days of culture with the peptide; for amount of specific CTLs (CD8 / MHC-tetramer reagent-positive): TYF: donor ID*24-8, 10 days stimulation, VYS: donor ID*24-2, 27 days
Protocol: MBL Co. where the present inventors are affiliated with has acquired exclusive patent licensing rights in Japan for MHC-tetramer reagents (U.S. Pat. No. 5,635,363; French Application No. FR9911133; and U.S. Pat. Nos. 5,723,584, 5,874,239, 5,932,433, and 6,265,552) from Beckman Coulter Co. Based on the patents, PE-labeled MHC-tetramer reagents were prepared using adenovirus-specific CTL epitope peptides and HLA-A*2402 molecules.
Adenovirus-specific CTLs quantification was carried out using MHC-tetramer reagents that was prepared using CTL epitope peptides of the present invention, with peripheral blood, PBMCs isolated from peripheral blood, CTL lines induced using CTL epitope peptides as samples. Examples of quantification using PE-labeled MHC-tetramer reagents are described below. Labelling dyes may be used in an appropriate combination depending on the type of flow cytometer to be used, and is not limited to the examples described below.
Ten μl of a PE-labeled MHC-tetramer reagent, 20 μl of an FITC-labeled antibody for T cell (for example, CD8, CD4, or CD3), and such were added to 200 μl of collected peripheral blood. A CD45 antibody labeled with PC5 or such may also be added to eliminate nonspecific fluorescence due to contaminated erythrocytes. After gentle mixing, the mixture was allowed to stand at room temperature for 30 minutes. OptiLyse B was added, and erythrolysis and fixation was carried out according to the manufacturer's protocol. Two ml of PBS was added, stirred, and the cells were centrifuged at 400×g for 5 minutes. After the supernatant was removed by aspiration, the cells were resuspended in 500 μl of PBS and analyzed using a flow cytometer within 24 hours.
Ten μl of a PE-labeled MHC-tetramer reagent, 20 μl of an FITC-labeled T cell surface antibody (for example, CD8, CD4, or CD3), and such were added to an appropriate amount of PBMCs (10^5 to 10^6 cells) or a CTL line induced by use of CTL epitope peptides. A CD45 antibody labeled with PC5 or such may also be added to eliminate nonspecific fluorescence due to contaminated erythrocytes. After gentle mixing, the cells were allowed to stand at room temperature for 30 minutes. Three ml of PBS was added, stirred, and the cells were centrifuged at 400×g for 5 minutes. After the supernatant was removed by aspiration, the cells were resuspended in 500 μl of PBS. When a CTL line is used, 7-AAD Viability Dye (Non-viable cell detection reagent; MBL Co.) may be added to eliminate nonspecific fluorescence caused by non-viable cells. The cells were analyzed using a flow cytometer within 24 hours.
The results of staining obtained using the five types of MHC-tetramer reagents used to prepare the peptide-induced CTL lines are shown in FIG. 5.

[2] = system: CTLs with target cells expressing HLA-A*24 molecules; test: Confirmation of CTLs by ELISPOT assay (IFNγ spots); settings: FIG. 4
Protocol: A commercially available ELISPOT assay kit (for example, MABTECH Co.) may be purchased, and the assay can be performed according to the manufacturer's protocol. Alternatively, the assay may also be carried out by the following procedure. 96-well MultiScreen-HA plates (Millipore Co.) were coated with an anti-IFNγ monoclonal antibody (R&D Systems Co.) at 4° C. for overnight. Each well was washed with PBS. Target cells were plated into each well. Any cells expressing HLA-A*24 molecules on their surface can be used as the target cells. For example, T2-A24, a cultured cell which a gene of HLA-A*24 molecule is introduced into a 174CEM.T2 cell, can be used. Alternatively, EBV-infected LCLs expressing HLA-A*24 molecules on their surface can be used as the target cells. These target cells were added into each well with a candidate peptide for adenovirus-specific CTL epitopes or a negative control (HIV) peptide. The mixtures were allowed to stand at room temperature for 30 minutes. Then, an adequate number of CTLs were added, and the mixtures were cultured in a 5% CO2 incubator at 37° C. for 20 hours. CTLs that responded to the candidate epitope peptide secreted IFNγ during this culture period, and the IFNγ bound to the anti-IFNγ monoclonal antibody that was coated on the plates. After culturing was completed, the plates were washed with PBS containing 0.05% Tween-20. Then, an anti-IFNγ polyclonal antibody (Genzyme Co.) and peroxidase-labeled goat anti-rabbit IgG serum were allowed to react in this order at room temperature for 90 minutes each. Furthermore, 3-amino-9-ethylcarbasole (Sigma), a peroxidase substrate, and 0.1M sodium acetate buffer (pH 5.0) containing 0.015% H2O2 was added to each well, and the plates were incubated at room temperature for 40 minutes to visualize the IFNγ spots. The spots were counted under a stereomicroscope.
The spots were counted under a stereomicroscope, and were plotted on a graph.

[3] = system: CTL line induced by TYF (PBMCs from ID*24-8); test: Cross-reactivity of the TYF-induced CTL line to the subgroup C-specific CTL epitope
From the text: As shown in FIG. 11-4, there are amino acid mutations at the fourth and sixth positions in TYF identified in the present invention as compared to the subgroup C-specific CTL epitopes. Thus, the cross-reactivity to subgroup C-specific CTL epitope ([…] (SEQ ID NO: 14); mutated amino acids are underlined) (Leen A M, Sili U, Vanin E F, Jewell A M, Xie W, Vignali D, Piedra P A, Brenner M K, Rooney C M. Conserved CTL epitopes on the adenovirus hexon protein expand subgroup cross-reactive and subgroup-specific CD8+ T cells. Blood. 104:2432-2440 (2004)) was examined using a CTL line induced by TYF.
PBMCs prepared from ID*24-8 were stimulated with TYF for 13 days, and then restimulated with TYF or […] (SEQ ID NO: 14) to examine whether the CTL line produces IFNγ.

[4] = donor ID*24-8, PBMCs cultured with the epitope peptide for 10 days (day 10)
[5] = donor ID*24-8, immediately after blood collection (day 0)
[6] = restimulation with the specific peptide

| Sequence | MHC-tetramer reagent-positive cells (UL and UR) in IFNγ / tetramer plot, almost none producing IFNγ [1] | positive rate: CD8-positive, MHC-tetramer reagent-positive cells to viable cells [1, 4] | positive rate: CD8-positive, MHC-tetramer reagent-positive cells to viable cells [1, 5] | increase of the positive rate from day 0 to day 10 [1] | amount of specific CTLs (CD8 / MHC-tetramer reagent-positive) ([1]; restimulation with HIV peptide) | amount of specific CTLs (CD8 / MHC-tetramer reagent-positive) [1, 6] | IFNγ spots in ELISPOT assay compared with the negative control (HIV) peptide [2] | cross-reactivity to subgroup C [3] | IFNγ production of the CTL line induced by TYF on restimulation with the named peptide ([3]; PBMCs from ID*24-8 stimulated with TYF for 13 days) | CD8-positive and TYF-Tet-positive cells ([3]; PBMCs from ID*24-8 stimulated with TYF for 13 days, restimulated with the named peptide) |
| --- | --- | --- | --- | --- | --- | --- | --- | --- | --- | --- |
| TYFNLGNKF [TYF] | 1.76% | 1.53% | 0.01% | 153 times | 1.67% | 0.80% | IFNγ spots were observed | no cross-reactivity | produced IFNγ in a TYF-specific manner | 1.22% |
| VYSGSIPYL | 8.24% | 0.15% | 0.01% | 15 times | 8.33% | 5.07% | IFNγ spots were observed |  |  |  |
